Measured values published in patent US7488792B2, “Collagen-binding molecules that selectively home to tumor vasculature and methods of using same” (Burnham Institute for Medical Research, priority 2002, dated 2009).
Ends that are not written are not given here. * marks the point of attachment. FITC = O=C1OC2(c3ccc(O)cc3Oc3cc(O)ccc32)c2ccc(NC(=S)*)cc21

Assays:
[1] = tested on: vasculature of MDA-MB-435 human breast cancer cell xenografts; assay: In vivo homing of phage to MDA-MB-435 xenografts in nude mice (phage recovery, pfu); parameters: species or system mouse; conditions: co-injection
Method: Phage preparations (1×10^9 plaque forming units (pfu)) of CREKA (SEQ ID NO: 1)-displaying phage were injected into tumor-bearing mice and subsequently recovered from breast tumors and a variety of normal tissues. […] The CREKA (SEQ ID NO: 1) phage also homed to the vasculature of MDA-MB-435 human breast cancer cell xenografts grown in the mammary fat pad of nude mice with a 20-fold specificity over non-recombinant phage as shown in FIG. 1B.
In vivo phage display screens were performed with 65 to 75 day old transgenic MMTV PyMT mice obtained from Dr. William Muller. MDA-MB-435 tumors were generated as described in Laakkonen et al., Nat. Med. 7:751-755 (2002). Briefly, 10^6 MDA-MB-435 cells in 100 μl phosphate buffered saline (PBS) were injected into the mammary fat pad of nude mice. Tumors were grown for five weeks before the animals were used in vivo studies. In vivo phage screening was performed as described in Porkka et al., Proc. Natl. Acad. Sci., USA 99:7444-7449 (2002), with a few modifications. Briefly, mice were anesthetized with avertin and then injected intravenously with 10^9 pfu of the CX7C library. Mice were perfused through the heart with 10 ml of PBS seven minutes after the injection. […] Cell-adherent phage particles were recovered by infecting BL21 bacteria (Novagen), and the number of phage quantified by plaque assay.

[2] = molecular target: T1, collagen IV fragment of clone #3 (SEQ ID NO: 2) (Mus musculus, UniProt P08122); assay: Binding of phage displaying clone #3 collagen IV fragment to immobilized CREKA peptide and its competition; parameters: effect of fibronectin on phage binding (clone #3 fragment / immobilized CREKA): dose or concentration left out as unconfirmed
T1 construct: made in house; host or cells: T7 phage (modified T7Select1-2b) amplified in BLT 5615 bacteria; cDNA from mouse 4T1 cells
T1 sequence (P08122 with tags, fused parts or gaps): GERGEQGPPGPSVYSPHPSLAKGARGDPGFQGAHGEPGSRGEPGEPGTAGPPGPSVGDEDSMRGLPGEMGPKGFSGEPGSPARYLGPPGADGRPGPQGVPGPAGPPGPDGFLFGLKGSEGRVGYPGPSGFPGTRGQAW
Method: Expression cloning was performed essentially as described in Essler and Ruoslahti, Proc. Natl. Acad. Sci., USA 99:2252-2257 (2002). CREKA (SEQ ID NO: 1) peptide was synthesized on a Symphony synthesizer (Rainin Instruments; Emeryville, Calif.) at The Burnham Institute peptide facility, and purified by high performance liquid chromatography. […] Biotin-labeled peptide (2 mg/ml) was immobilized on a streptavidin-coated 96 well Reacti-Bind® polystyrene strip plate (Pierce; Rockford, Ill.) by coating overnight at room temperature with 100 μl of 2 mg/ml biotin-CREKA (SEQ ID NO: 1) in PBS. The wells were subsequently treated three times with 200 μl SuperBlock® blocking buffer (Pierce).
Binding assays were performed as follows. […]
For competitions with free CREKA (SEQ ID NO: 1) peptide, phage displaying the clone #3 collagen IV fragment (SEQ ID NO: 2; 1×10^7 pfu) were applied to CREKA (SEQ ID NO: 1)-coated surfaces in 96-well ELISA plates prepared as described above, and incubated for one […] in the presence of 0.01 mg, 0.05 mg, or 0.1 mg soluble CREKA (SEQ ID NO: 1) peptide in 100 μl PBS. […] After 20 washes with 100 μl PBS, phage particles were recovered by infecting BL21 bacteria, and the number of attached phage determined. Phage output was determined as a percentage of phage recovered from wells not treated with soluble peptide.

[3] = tested on: mitochondrial membranes; conditions: concentration of 10 μM; cited from earlier work
[4] = tested on: MMTV PyMT tumors; assay: Tissue localization of fluorescein- and rhodamine-labeled peptide after intravenous injection; type: in vivo, mouse; conditions: for detection of labeled peptide in MMTV PyMT tumors / detection of labeled peptide in normal tissues: 15 minutes after intravenous injection; for detection of labeled peptide in normal tissues: brain or liver
Method: Similarly, fluorescein (FITC) and rhodamine labeled CREKA (SEQ ID NO: 1) peptides also were detected in MMTV PyMT tumors 15 minutes after intravenous injection but were not observed in normal tissues such as the brain or liver (compare FIG. 3A with FIGS. 3B and 3C). […] As expected, control organs such as the heart, injected with rhodamine-labeled CREKA (SEQ ID NO: 1) and FITC-tomato-lectin, which stains blood vessels, were negative for CREKA (SEQ ID NO: 1) peptide staining (see FIG. 3F).
Peptide synthesis and labeling of peptides with fluorescein and rhodamine was carried out as described in Wender et al., Proc. Natl. Acad. Sci., USA 97:13003-13008 (2000), and Oku et al., supra, 2002, and detected essentially as follows. A 1 mg/ml solution of fluorescein-labeled CREKA (SEQ ID NO: 1) peptide in PBS was injected into the tail vein of MMTV PyMT mice. After 15 minutes or two hours of circulation, mice were perfused through the heart with 10 ml PBS, and the indicated organs harvested. Tissues were dissected, fixed with 3.7% paraformaldehyde for two hours, washed with PBS, and soaked in glycine (0.01%, pH 7.4) for 12 hours. Specimens were then treated with a sucrose gradient (12%, 15%, 18%), embedded in Tissue-Tek© (Miles Inc.; Elkhardt, Ind.) and frozen. Subsequently, 5 μm sections were prepared for fluorescence microscopy, and 50 μm sections were prepared for confocal microscopy. To detect blood vessels, 100 μl of 1 mg/ml solution of fluorescein-labeled tomato lectin (Vector Labs; Burlingame, Calif.) was injected into mice in PBS.

[5] = molecular target: T2, collagen IV in MMTV-PyMT tumors (Mus musculus, UniProt P02463+P08122); assay: Co-localization of injected FITC peptide with collagen IV immunostaining in tumors; type: in vivo; conditions: 100 μg injected into tail vein, 15 minutes; connective tissue surrounding tumor masses
T2 construct: from tissue; host or cells: breast tumors of MMTV PyMT mice
T2 sequence (P02463 173-1669): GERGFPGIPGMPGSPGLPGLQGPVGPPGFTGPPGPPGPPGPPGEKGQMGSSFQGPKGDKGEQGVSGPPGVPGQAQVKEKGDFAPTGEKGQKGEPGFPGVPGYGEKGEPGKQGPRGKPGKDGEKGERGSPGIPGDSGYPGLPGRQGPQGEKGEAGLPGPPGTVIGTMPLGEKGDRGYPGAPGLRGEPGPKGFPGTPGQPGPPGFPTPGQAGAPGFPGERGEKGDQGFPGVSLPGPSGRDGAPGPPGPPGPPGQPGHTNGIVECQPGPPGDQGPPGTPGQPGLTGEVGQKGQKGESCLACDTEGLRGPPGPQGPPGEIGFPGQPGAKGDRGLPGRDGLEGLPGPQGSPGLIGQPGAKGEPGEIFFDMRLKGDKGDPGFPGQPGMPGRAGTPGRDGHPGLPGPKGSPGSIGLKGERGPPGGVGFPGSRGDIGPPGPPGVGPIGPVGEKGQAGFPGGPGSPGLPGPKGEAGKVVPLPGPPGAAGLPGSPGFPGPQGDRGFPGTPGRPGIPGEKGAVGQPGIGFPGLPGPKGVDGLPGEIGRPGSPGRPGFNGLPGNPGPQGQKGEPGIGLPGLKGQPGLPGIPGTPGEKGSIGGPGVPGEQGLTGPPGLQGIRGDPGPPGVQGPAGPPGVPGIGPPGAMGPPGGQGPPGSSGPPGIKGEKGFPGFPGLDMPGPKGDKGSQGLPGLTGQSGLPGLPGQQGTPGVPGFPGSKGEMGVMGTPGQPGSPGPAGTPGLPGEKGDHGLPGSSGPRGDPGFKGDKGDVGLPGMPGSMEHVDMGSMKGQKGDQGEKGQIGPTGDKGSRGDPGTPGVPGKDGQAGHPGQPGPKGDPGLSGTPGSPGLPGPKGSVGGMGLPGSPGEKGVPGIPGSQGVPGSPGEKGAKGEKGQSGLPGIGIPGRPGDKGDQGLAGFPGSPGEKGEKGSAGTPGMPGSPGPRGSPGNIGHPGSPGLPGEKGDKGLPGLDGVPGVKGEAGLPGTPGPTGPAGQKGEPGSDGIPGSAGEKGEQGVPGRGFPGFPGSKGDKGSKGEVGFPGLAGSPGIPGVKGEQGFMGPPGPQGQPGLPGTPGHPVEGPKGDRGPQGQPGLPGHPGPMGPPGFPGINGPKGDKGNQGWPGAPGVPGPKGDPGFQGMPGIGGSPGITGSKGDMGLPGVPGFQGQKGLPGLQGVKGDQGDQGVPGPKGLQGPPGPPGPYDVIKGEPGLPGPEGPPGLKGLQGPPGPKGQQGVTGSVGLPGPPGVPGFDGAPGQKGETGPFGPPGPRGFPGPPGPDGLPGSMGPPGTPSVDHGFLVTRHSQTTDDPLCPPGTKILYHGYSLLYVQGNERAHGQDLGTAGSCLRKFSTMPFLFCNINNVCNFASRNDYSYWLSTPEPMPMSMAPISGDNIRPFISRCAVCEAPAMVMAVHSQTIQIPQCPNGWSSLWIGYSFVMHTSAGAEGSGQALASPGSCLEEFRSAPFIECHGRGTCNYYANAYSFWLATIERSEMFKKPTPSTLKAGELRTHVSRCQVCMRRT
T2 sequence (P08122 184-1707): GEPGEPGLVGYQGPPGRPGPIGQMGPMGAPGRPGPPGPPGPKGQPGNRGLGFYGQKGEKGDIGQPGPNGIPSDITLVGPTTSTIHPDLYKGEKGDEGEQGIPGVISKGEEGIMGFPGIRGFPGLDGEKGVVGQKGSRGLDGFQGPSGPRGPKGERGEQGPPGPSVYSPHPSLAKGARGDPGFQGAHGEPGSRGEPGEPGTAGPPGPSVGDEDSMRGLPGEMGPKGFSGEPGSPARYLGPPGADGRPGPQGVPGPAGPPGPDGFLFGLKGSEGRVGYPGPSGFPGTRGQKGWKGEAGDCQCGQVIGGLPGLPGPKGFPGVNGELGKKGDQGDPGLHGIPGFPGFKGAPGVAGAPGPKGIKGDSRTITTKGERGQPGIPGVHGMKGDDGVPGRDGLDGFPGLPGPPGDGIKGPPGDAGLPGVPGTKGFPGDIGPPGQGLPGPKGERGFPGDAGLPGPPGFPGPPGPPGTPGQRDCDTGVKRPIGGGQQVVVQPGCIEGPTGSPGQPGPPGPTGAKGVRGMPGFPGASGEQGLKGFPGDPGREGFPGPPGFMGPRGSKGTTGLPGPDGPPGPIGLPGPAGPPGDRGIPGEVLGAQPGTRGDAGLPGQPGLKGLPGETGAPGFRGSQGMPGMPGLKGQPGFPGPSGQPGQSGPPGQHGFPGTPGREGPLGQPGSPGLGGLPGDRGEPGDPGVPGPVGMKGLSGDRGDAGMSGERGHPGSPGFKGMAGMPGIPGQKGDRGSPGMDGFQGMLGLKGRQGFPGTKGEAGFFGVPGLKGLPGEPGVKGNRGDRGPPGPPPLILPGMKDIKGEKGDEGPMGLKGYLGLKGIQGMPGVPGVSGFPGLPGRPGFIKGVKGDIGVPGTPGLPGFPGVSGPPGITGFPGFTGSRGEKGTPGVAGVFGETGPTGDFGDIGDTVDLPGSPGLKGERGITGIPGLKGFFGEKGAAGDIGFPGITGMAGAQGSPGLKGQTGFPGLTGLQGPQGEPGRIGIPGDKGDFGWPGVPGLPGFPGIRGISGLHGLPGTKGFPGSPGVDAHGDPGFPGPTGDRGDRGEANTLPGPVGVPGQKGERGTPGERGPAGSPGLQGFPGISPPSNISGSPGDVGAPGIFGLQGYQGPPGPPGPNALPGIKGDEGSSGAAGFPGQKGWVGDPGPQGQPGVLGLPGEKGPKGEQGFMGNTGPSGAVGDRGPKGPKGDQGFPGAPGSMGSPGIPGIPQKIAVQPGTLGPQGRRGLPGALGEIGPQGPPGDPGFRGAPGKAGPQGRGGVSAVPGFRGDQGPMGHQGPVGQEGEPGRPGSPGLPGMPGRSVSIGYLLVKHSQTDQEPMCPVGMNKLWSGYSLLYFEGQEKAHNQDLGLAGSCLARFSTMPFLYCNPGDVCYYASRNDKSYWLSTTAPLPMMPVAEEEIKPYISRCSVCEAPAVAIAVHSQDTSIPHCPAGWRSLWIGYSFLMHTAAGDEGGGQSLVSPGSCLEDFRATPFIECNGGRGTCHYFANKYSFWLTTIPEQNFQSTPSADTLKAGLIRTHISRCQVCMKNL
Method: Localization of collagen IV was compared to the localization of CREKA (SEQ ID NO: 1) peptide in breast tumors.
Immunostaining was performed after injection of 100 μg FITC-CREKA (SEQ ID NO: 1) into the tail vein of MMTV PyMT mice. After 15 minutes, tumors were dissected, fixed, stained for collagen IV and counter-stained with DAPI essentially as follows. Collagen IV was detected by immunofluorescence as described in Engvall et al., supra, 1982, with the following modifications. Briefly, mouse tissues were fixed with 3.7% paraformaldehyde for two hours, washed with PBS, and incubated in glycine (0.01%, pH 7.4) for 12 hours to quench autofluorescence of the samples. Specimens were then treated with increasing concentrations of sucrose (12%, 15%, 18%), embedded in Tissue-Tek© (Miles Inc.), frozen, and cut into 5 μm sections. After an overnight incubation with rabbit antiserum to collagen IV (diluted 1:40 in PBS) at 4° C. (Engvall et al., supra, 1982), the sections were washed with PBS and incubated with rhodamine-labeled goat anti-rabbit antibody (DAKO) at a dilution of 1:30 for 30 minutes. After washing, the sections were mounted in 90% glycerol.

[6] = tested on: tumor; assay: In vivo tumor homing of CREKA phage with co-injection of gelatin
[7] = after two hours, localizing outside the blood vessels

Row | Substance | detection of labeled peptide in MMTV PyMT tumors [4] | distribution of labeled peptide within tumor ([4]; 15 minutes after the injection) | distribution of labeled peptide within tumor [4, 7] | detection of labeled peptide in normal tissues [4] | further results
1 | CREKA [CREKA peptide] | – | – | – | – | effect of co-injected free peptide on homing of phage displaying the control peptide [1]: did not inhibit; effect of co-injected free peptide on CREKA-displaying phage recovery from breast cancer tissue ([1]; excess of free peptide, FIG. 1B): inhibited; inhibition of clone #3 collagen IV fragment phage binding to immobilized CREKA ([2]; 0.01 mg, 0.05 mg or 0.1 mg soluble peptide in 100 μl PBS, FIG. 5A): inhibited
2 | D(KLAKLAK)2 | – | – | – | – | mitochondrial swelling [3]: marked mitochondrial swelling
3 | FITC-CREKA: fluorescein (FITC) labeled CREKA (SEQ ID NO: 1) peptide ({FITC}-CREKA) | detected | primarily in the tumor periphery | detected in the entire tumor | not observed | co-localization with collagen IV in tumors [5]: partially co-localized
4 | Fibronectin [reference compound] | – | – | – | – | effect of fibronectin on phage binding (clone #3 fragment / immobilized CREKA) ([2]; fibronectin, FIG. 5B): did not significantly reduce
5 | gelatin | – | – | – | – | effect of co-injection on in vivo tumor homing of CREKA-expressing phage [6]: completely blocked
6 | rhodamine-labeled CREKA: rhodamine labeled CREKA (SEQ ID NO: 1) peptide (also: rhodamine label, site not given here) | detected | primarily in the tumor periphery | detected in the entire tumor | not observed | CREKA peptide staining in heart ([4]; heart, co-injected with FITC-tomato-lectin, FIG. 3F): negative
